According to patent US7169817B2, “Bis-aromatic alkanols” (IRM LLC, priority 2002, dated 2007):
pEC50: −log10 of the molar value.

What was measured:
Test in all cases: GTPγS binding assay using S1P receptor/HEK293 membrane preparations
Type in all cases: biochemical
Settings in all cases: membranes of transiently transfected HEK293 cells
[1] = molecular target: T1, S1P3 (Homo sapiens, UniProt Q99500)
T1 construct: expressed in transfected cells; host or cells: HEK293 (transient, calcium phosphate); crude membranes
From the text: (§1) A. In vitro: Binding Affinity of Compounds of Formula I to Individual Human S1P Receptors may be Determined in the Following Assays:
(§2) Transient Transfection of Human S1P Receptors into HEK293 Cells
(§3) EDG receptors and Gi proteins are cloned, and equal amounts of 4 cDNAs for the EDG receptor, Gi-α, Gi-β and Gi-γ are mixed and used to transfect monolayers of HEK293 cells using the calcium phosphate precipitate method (M. Wigler et al., Cell. 1977;11;223 and D S. Im et al., Mol. Pharmacol. 2000;57;753). Briefly, a DNA mixture containing 25 μg of DNA and 0.25 M CaCl is added to HEPES-buffered 2 mM Na2HPO4. Subconfluent monolayers of HEK293 cells are poisoned with […] chloroquine, and the DNA precipitate is then applied to the cells. After 4 hours, the monolayers are washed with phosphate-buffered saline and re-fed media (90% 1:1 Dulbecco's modified essential media (DMEM):F-12+10% fetal bovine serum). The cells are harvested 48–72 hours after addition of the DNA by scraping in HME buffer (in mM: 20 HEPES, 5 MgCl2, 1 EDTA, pH 7.4) containing 10% sucrose on ice, and disrupted using a Dounce homogenizer. After centrifugation at 800×g, the supernatant is diluted with HME without sucrose and centrifuged at 100,000×g for 1 hour. The resulting pellet is rehomogenized and centrifuged a second hour at 100,000×g. This crude membrane pellet is resuspended in HME with sucrose, aliquoted, and snap-frozen by immersion in liquid nitrogen. The membranes are stored at […] Protein concentration is determined spectroscopically by the Bradford protein assay.
(§4) GTPγS Binding Assay Using S1P Receptor/HEK293 Membrane Preparations
(§5) GTPγS binding experiments are performed as described by D S. Im et al., Mol. Pharmacol. 2000; 57:753. Ligand-mediated GTPγS binding to G-proteins is measured in GTP binding buffer (in mM: 50 HEPES, 100 NaCl, 10 MgCl2, pH 7.5) using 25 μg of a membrane preparation from transiently transfected HEK293 cells. Ligand is added to membranes in the presence of 10 μM GDP and 0.1 nM [^35S]GTPγS (1200 Ci/mmol) and incubated at 30° C. for 30 min. Bound GTPγS is separated from unbound using the Brandel harvester (Gaithersburg, Md.) and counted with a liquid scintillation counter.

[2] = molecular target: T2, S1P5 (Homo sapiens, UniProt Q9H228)
T2 construct: expressed in transfected cells; host or cells: HEK293 (transient, calcium phosphate); crude membranes
From the text: as §1, §2, §3, §4, §5

[3] = molecular target: T3, S1P4 (Homo sapiens, UniProt O95977)
T3 construct: expressed in transfected cells; host or cells: HEK293 (transient, calcium phosphate); crude membranes
T3 sequence (O95977 1-384): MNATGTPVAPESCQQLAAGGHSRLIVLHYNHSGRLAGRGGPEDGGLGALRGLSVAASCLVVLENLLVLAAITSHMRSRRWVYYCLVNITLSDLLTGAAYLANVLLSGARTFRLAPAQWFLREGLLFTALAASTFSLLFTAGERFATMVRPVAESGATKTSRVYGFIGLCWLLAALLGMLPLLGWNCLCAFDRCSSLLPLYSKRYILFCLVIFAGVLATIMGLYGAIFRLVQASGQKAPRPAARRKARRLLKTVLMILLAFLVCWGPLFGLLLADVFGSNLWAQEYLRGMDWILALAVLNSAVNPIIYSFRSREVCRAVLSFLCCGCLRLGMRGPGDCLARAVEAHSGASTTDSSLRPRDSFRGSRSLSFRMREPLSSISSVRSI
From the text: as §1, §2, §3, §4, §5

[4] = molecular target: T4, S1P2 (Homo sapiens, UniProt O95136)
T4 construct: expressed in transfected cells; host or cells: HEK293 (transient, calcium phosphate); crude membranes
From the text: as §1, §2, §3, §4, §5

[5] = molecular target: T5, S1P1 (Homo sapiens, UniProt P21453)
T5 construct: expressed in transfected cells; host or cells: HEK293 (transient, calcium phosphate); crude membranes
From the text: as §1, §2, §3, §4, §5

T4 sequence (O95136 whole entry): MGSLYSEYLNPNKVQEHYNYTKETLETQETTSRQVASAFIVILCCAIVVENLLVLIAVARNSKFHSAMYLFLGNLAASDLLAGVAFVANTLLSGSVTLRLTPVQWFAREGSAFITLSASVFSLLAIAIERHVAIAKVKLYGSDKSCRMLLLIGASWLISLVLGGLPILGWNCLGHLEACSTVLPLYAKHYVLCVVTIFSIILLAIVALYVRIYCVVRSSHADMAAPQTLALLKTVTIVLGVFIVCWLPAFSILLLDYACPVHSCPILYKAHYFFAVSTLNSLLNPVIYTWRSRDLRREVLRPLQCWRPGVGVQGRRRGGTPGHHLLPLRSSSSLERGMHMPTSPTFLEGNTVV
T5 sequence (P21453 whole entry): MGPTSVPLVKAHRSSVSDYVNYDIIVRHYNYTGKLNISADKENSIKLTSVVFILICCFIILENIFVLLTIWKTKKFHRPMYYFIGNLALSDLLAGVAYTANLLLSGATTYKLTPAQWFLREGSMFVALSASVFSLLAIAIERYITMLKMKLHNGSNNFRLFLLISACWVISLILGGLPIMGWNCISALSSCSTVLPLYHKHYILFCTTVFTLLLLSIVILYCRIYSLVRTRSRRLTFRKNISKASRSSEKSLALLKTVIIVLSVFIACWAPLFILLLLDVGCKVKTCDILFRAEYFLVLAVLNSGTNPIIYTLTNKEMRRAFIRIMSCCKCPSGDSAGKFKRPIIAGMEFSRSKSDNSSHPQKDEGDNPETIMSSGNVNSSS
T2 sequence (Q9H228 whole entry): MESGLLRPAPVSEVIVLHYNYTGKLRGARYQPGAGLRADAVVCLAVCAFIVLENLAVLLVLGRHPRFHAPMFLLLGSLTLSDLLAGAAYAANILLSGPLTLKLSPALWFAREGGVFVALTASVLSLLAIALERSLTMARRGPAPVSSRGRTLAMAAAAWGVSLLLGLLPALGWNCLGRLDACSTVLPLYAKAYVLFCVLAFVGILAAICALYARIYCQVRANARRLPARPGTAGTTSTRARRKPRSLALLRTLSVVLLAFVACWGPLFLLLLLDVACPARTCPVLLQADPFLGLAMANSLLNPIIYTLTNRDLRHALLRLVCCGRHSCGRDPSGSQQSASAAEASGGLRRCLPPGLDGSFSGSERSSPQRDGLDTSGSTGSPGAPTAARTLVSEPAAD
T1 sequence (Q99500 whole entry): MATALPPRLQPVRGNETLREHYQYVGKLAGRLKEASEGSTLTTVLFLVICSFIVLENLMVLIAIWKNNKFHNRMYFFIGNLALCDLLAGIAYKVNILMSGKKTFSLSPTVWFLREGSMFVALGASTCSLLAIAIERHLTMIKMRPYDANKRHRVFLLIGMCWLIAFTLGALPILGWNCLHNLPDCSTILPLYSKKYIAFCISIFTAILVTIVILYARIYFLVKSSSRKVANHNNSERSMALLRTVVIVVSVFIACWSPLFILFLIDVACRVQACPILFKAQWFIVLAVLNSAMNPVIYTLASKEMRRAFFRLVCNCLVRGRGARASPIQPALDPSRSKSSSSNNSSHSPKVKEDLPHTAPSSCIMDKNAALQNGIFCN

pEC50 [1] | pEC50 [2] | pEC50 [3] | pEC50 [4] | pEC50 [5] | Compound
7.27 | 8.68 | < 5.00 | < 5.00 | 9.80 | CCCc1cc(-c2ccc(-c3ccc(CCC(N)(CO)CO)cc3)cc2)no1 [Example 41]
8.72 | 10.00 | < 5.00 | < 5.00 | 10.15 | NC(CO)(CO)CCc1ccc(-c2ccc(OCc3ccc(F)c(F)c3)cc2)cc1 [Example 63]
< 5.00 | 8.96 | 8.92 | < 5.00 | 9.48 | CCCCCc1ccc(-c2ccc(CCC(N)(CO)CO)cc2)cc1 [Example 36]
